The target in one test is T1, BRAF (Homo sapiens, UniProt P15056).
T1 construct: purchased Invitrogen
Put plainly: In vitro kinase assay (Z'-LYTE), BRAF. It is filed as biochemical. As to conditions: read-out: % of inhibition of the kinase compared to the control. In a few lines:
(§1)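 Compounds at a single dose (100 nM; 10 μM for both ABL forms) were run in a fluorescence coupled-enzyme kinase format relying on differential protease sensitivity of phospho versus non-phospho peptide. Reaction progress was measured ratiometrically from the FRET pair.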

For the next test, the target named is T2, EGFR (ErbB1) (Homo sapiens, UniProt P00533).
T2 construct: purchased Invitrogen
T2 sequence (P00533 25-1210): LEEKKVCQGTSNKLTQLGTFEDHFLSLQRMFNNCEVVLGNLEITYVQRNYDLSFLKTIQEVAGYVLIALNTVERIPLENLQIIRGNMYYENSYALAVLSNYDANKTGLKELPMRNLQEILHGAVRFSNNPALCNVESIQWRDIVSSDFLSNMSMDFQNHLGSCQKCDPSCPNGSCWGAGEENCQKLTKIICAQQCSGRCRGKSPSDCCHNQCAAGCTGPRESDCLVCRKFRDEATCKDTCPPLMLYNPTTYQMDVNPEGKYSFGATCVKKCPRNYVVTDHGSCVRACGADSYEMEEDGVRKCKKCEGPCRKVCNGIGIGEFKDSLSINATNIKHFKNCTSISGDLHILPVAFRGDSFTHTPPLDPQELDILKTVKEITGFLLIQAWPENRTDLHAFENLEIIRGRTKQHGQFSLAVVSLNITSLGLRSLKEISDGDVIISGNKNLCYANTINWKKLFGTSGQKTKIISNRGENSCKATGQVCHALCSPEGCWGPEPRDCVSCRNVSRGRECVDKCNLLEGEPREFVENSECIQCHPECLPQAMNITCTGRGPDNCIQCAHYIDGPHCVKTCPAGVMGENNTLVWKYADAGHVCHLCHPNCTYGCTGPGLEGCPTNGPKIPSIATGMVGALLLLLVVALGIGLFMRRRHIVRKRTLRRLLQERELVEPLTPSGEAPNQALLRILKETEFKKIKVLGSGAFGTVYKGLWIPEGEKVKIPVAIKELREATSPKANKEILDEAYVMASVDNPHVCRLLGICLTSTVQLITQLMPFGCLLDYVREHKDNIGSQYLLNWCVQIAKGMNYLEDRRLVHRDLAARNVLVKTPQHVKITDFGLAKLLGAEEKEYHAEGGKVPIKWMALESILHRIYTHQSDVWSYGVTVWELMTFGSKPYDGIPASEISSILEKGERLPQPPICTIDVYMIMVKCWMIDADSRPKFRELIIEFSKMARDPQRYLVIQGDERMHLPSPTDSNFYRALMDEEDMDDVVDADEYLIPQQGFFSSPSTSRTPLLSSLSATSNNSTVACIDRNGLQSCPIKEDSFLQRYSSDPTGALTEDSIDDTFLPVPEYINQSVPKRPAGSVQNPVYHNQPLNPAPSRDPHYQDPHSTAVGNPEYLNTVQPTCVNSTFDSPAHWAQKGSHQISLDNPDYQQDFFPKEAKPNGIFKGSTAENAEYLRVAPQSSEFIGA
Put plainly: In vitro kinase assay (Z'-LYTE), EGFR (ErbB1). It is filed as biochemical. Conditions: read-out: % of inhibition of the kinase compared to the control. In a few lines: as §1

Another test deals with T3, EGFR (ErbB1) T790M L858R (Homo sapiens, UniProt P00533, L858R/T790M).
T3 construct: purchased Invitrogen
T3 sequence (P00533 25-1210 T790M/L858R): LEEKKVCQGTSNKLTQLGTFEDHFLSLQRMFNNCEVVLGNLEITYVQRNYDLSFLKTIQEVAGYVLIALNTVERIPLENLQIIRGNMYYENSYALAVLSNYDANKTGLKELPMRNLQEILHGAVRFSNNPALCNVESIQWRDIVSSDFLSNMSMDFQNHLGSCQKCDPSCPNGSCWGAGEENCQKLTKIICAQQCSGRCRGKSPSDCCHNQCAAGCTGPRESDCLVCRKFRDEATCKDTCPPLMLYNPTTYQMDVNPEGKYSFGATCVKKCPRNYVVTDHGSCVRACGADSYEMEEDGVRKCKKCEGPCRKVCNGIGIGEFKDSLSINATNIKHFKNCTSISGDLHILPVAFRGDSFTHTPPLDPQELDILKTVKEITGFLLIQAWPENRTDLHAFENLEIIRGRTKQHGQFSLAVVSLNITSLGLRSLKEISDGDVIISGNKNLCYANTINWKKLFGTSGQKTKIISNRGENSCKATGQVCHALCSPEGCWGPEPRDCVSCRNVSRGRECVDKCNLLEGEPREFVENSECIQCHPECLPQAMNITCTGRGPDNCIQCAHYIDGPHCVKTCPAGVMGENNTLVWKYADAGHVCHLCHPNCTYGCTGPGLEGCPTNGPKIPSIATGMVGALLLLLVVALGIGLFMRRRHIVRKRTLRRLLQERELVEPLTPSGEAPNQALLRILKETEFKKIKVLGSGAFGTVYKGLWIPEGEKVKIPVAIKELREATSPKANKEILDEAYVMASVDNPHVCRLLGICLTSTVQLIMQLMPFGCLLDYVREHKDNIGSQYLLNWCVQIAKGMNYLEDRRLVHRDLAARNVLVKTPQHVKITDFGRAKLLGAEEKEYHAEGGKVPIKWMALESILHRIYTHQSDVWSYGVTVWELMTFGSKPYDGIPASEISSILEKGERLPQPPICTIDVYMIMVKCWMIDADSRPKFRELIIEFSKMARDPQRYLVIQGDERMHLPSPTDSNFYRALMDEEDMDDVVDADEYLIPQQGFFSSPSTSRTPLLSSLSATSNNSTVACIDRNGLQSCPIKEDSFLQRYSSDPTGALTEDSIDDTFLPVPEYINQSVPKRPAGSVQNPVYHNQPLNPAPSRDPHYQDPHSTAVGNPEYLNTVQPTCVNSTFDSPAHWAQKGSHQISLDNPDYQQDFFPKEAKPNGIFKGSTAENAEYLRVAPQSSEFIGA
Briefly: In vitro kinase assay (Z'-LYTE), EGFR (ErbB1) T790M L858R. Type of test: biochemical. As to conditions: read-out: % of inhibition of the kinase compared to the control. Put shortly: as §1

In another test the target is T4, FGFR2 (Homo sapiens, UniProt P21802).
T4 construct: purchased Invitrogen
Briefly: In vitro kinase assay (Z'-LYTE), FGFR2. It is filed as biochemical. As to conditions: read-out: % of inhibition of the kinase compared to the control. In a few lines: as §1

Another test concerns the target T5, KDR (VEGFR2) (Homo sapiens, UniProt P35968).
T5 construct: purchased Invitrogen
Put plainly: In vitro kinase assay (Z'-LYTE), KDR (VEGFR2). It is filed as biochemical. Conditions: read-out: % of inhibition of the kinase compared to the control. In a few lines: as §1

Another test addresses T6, PDGFRA (PDGFR alpha) (Homo sapiens, UniProt P16234).
T6 construct: purchased Invitrogen
Put plainly: In vitro kinase assay (Z'-LYTE), PDGFRA. Type of test: biochemical. As to conditions: read-out: % of inhibition of the kinase compared to the control. In a few lines: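 Single-point screening used 100 nM compound for VEGFR1 and PDGFRA, 10 μM for wild-type and T315I ABL. Activity was scored via Z'-LYTE emission ratio.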

The target of the next test is T7, SRC (Homo sapiens, UniProt P12931).
T7 construct: purchased Invitrogen
T7 sequence (P12931 whole entry): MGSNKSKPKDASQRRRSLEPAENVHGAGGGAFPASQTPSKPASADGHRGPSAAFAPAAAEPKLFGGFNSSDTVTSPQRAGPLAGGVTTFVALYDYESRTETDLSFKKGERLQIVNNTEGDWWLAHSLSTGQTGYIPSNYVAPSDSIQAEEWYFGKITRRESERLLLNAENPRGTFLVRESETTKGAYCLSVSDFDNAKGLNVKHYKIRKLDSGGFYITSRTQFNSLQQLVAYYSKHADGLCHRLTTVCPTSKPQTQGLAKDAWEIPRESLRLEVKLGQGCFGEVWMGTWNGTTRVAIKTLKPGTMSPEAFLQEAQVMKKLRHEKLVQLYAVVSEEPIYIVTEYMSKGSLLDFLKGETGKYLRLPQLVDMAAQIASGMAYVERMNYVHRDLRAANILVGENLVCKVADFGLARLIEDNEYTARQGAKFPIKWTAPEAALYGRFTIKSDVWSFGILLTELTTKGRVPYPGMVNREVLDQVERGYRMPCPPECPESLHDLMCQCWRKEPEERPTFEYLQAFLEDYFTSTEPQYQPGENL
Briefly: In vitro kinase assay (Z'-LYTE), SRC. Type of test: biochemical. As to conditions: read-out: % of inhibition of the kinase compared to the control. Put shortly:
as §1

Another test deals with T8, ABL (Homo sapiens, UniProt P00519).
T8 construct: purchased Invitrogen
Briefly: In vitro kinase assay (Z'-LYTE), ABL. Type of test: biochemical. Conditions: read-out: % of inhibition of the kinase compared to the control. As for the experimental part:
(§2) 1) In Vitro Kinase Assays (Table 10 to Table 21)
(§3) The inhibitory activity of the compounds on several kinases including BRAF, EGFR (ErbB1), EGFR (ErbB1) T790M L858R, FGFR2, KDR (VEGFR2), PDGFRA (PDGFR alpha), SRC and other was evaluated by Invitrogen using the Z′-LYTE® technology. Briefly, the Z′-LYTE® biochemical assay employs a fluorescence-based, coupled-enzyme format and is based on the differential sensitivity of phosphorylated and non-phosphorylated peptides to proteolytic cleavage. The peptide substrate is labeled with two fluorophores—one at each end—that make up a FRET pair. A ratiometric method, which calculates the ratio (the Emission Ratio) of donor emission to acceptor emission after excitation of the donor fluorophore at 400 nm, is used to quantitate reaction progress.
(§4) The compounds are screened in 1% DMSO (final) in the well. For 10 point titrations, 3-fold serial dilutions are conducted from the starting concentration. All Peptide/Kinase Mixtures are diluted to a 2× working concentration in the appropriate Kinase Buffer. All ATP Solutions are diluted to a 4× working concentration in Kinase Buffer (50 mM HEPES pH 7.5, 0.01% BRIJ-35, 10 mM MgCl2, 1 mM EGTA). ATP Km apparent is previously determined using a Z′-LYTE® assay.
(§5) Each compound was incubated at a concentration of 100 nM (excepted to test the activity against ABL and ABL T315I for which the compounds were incubated at a concentration of 10 μM) and the tables 10 to 21 summarize the results obtained showing the inhibitory power of a compound.

Another test concerns the target T9, ABL T315I (Homo sapiens, UniProt P00519, T315I).
T9 construct: purchased Invitrogen
Briefly: In vitro kinase assay (Z'-LYTE), ABL T315I. It is filed as biochemical. As to conditions: read-out: % of inhibition of the kinase compared to the control. As for the experimental part: as §2, §3, §4, §5

For the next test, the target named is T10, FGFR1 (Homo sapiens, UniProt P11362).
T10 construct: purchased Invitrogen
T10 sequence (P11362 22-822): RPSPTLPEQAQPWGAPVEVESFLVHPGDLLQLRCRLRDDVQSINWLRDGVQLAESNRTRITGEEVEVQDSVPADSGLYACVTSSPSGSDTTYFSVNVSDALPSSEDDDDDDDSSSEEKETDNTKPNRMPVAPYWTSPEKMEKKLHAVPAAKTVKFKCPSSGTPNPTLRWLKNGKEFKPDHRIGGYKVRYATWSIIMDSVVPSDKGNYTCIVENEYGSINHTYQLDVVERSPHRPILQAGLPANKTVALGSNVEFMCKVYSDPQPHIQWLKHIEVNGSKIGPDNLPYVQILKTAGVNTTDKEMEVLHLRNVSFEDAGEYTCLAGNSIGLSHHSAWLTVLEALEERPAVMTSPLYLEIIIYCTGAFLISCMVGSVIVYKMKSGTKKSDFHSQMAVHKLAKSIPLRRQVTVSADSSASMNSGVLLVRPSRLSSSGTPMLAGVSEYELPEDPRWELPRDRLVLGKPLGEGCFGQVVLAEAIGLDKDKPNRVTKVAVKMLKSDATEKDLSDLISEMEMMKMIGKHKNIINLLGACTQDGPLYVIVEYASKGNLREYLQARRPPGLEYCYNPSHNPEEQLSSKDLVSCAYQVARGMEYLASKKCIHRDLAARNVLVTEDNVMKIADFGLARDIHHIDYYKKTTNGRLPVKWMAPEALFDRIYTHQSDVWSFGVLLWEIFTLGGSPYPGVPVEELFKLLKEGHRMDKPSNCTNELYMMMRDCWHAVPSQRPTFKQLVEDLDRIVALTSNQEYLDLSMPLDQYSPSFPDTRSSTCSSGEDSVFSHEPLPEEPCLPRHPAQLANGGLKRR
Put plainly: In vitro kinase assay (Z'-LYTE), FGFR1. Type of test: biochemical. Conditions: read-out: % of inhibition of the kinase compared to the control. As for the experimental part: as §2, §3
(§6) The compounds are screened in 1% DMSO (final) in the well. For 10 point titrations, 3-fold serial dilutions are conducted from the starting concentration. All Peptide/Kinase Mixtures are diluted to a 2× working concentration in the appropriate Kinase Buffer. All ATP Solutions are diluted to a 4× working concentration in Kinase Buffer (50 mM HEPES pH 7.5, 0.01% BRIJ-35, 10 mM MgCl2, 1 mM EGTA). ATP Km apparent is previously determined using a Z′-LYTE® assay. […]

For the next test, the target named is T11, VEGFR1 (Homo sapiens, UniProt P17948).
T11 construct: purchased Invitrogen
Briefly: In vitro kinase assay (Z'-LYTE), VEGFR1. It is filed as biochemical. As to conditions: read-out: % of inhibition of the kinase compared to the control. As for the experimental part:
as §2, §3, §6

The next test deals with T12, PDGFRB (Homo sapiens, UniProt P09619).
T12 construct: purchased Invitrogen
Briefly: In vitro kinase assay (Z'-LYTE), PDGFRB. It is filed as biochemical. Conditions: read-out: % of inhibition of the kinase compared to the control. As for the experimental part: as §2, §3, §6

Another test has as its system A549 cell line. Put plainly: In vitro cell proliferation assay (MTT), A549. As to conditions: Homo sapiens; A549, 72 hr, MTT; read-out: EC50, anti-proliferative activity. Type of test: cell-based. Put shortly: (§7)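 Duplicate wells of each line were exposed for 72 hr to 10 nM–3 μM compound. HRMEC were plated at 1×10^4 cells per well, cancer cells at 5×10^3.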
Another test has as its system HepG2 cell line. Put plainly: In vitro cell proliferation assay (MTT), HepG2. Conditions: Homo sapiens; HepG2, 72 hr, MTT; read-out: EC50, anti-proliferative activity. Type of test: cell-based. Put shortly:
as §7

The test system of a further test is HT29 cell line. Briefly: In vitro cell proliferation assay (MTT), HT29. It is filed as cell-based. Conditions: Homo sapiens, HT-29; HT29, 72 hr, MTT; read-out: EC50, anti-proliferative activity. In a few lines:
as §7

Another test has as its system BxPC-3 cell line. Briefly: In vitro cell proliferation assay (MTT), BxPC-3. Type of test: cell-based. Conditions: Homo sapiens; BxPC-3, 72 hr, MTT; read-out: EC50, anti-proliferative activity. On the procedure:
2) In Vitro Cell Proliferation Assays (Table 22 to Table 35)
Cancer cell lines (5×10^3 cells per well) or HUVEC (1×10^4 cells per well) or HRMEC (1×10^4 cells per well) were distributed in 96-well plates and incubating in duplicate with escalating concentrations (10 nM to 3 μM) of compounds for 72 hr. Cell proliferation was measured using MTT (3[4,5-dimethylthiazol-2-yl]-2,5-diphenyltetrazolium bromide).

For the next test, the system named is H1975 cell line. Put plainly: In vitro cell proliferation assay (MTT), H1975. Type of test: cell-based. Conditions: Homo sapiens, NCI-H1975; H1975, 72 hr, MTT; read-out: EC50, anti-proliferative activity. Put shortly:
as §7

The test system of a further test is HUVEC. Put plainly: In vitro cell proliferation assay (MTT), HUVEC. It is filed as cell-based. As to conditions: Homo sapiens, 72 hr, MTT, read-out: EC50, anti-proliferative activity. Put shortly:
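Anti-proliferative effects on human umbilical vein endothelial cells were assessed by an MTT (3[4,5-dimethylthiazol-2-yl]-2,5-diphenyltetrazolium bromide) readout. Cells (1×10^4 cells per well) in 96-well plates were incubated in duplicate for 72 hr with escalating test compound concentrations spanning 10 nM to 3 μM.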

T1 sequence (P15056 whole entry): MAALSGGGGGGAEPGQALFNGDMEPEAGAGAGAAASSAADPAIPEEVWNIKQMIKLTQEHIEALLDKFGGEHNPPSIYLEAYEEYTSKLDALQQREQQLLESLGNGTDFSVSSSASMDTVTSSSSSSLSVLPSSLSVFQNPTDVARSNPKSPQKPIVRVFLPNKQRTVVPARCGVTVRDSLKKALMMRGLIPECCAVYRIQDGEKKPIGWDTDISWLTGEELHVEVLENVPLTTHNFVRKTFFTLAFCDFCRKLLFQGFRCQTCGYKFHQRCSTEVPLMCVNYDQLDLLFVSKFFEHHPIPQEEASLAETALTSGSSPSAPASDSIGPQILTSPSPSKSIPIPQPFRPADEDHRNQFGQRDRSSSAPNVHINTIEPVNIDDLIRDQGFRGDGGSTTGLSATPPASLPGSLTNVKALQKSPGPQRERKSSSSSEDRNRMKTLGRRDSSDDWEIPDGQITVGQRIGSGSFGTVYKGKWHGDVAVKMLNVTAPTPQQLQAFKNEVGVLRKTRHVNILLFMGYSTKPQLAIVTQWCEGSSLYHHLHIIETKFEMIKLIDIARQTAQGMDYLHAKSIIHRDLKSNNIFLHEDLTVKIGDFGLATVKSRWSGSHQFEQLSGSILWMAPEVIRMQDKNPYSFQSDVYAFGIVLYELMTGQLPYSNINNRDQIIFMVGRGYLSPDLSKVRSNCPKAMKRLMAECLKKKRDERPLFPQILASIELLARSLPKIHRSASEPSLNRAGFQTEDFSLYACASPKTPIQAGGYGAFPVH

The term inhibition denotes the relative decrease from the control value, in per cent. A word on the EC50: it is the concentration needed to bring the measured effect to its halfway point. As to `Cc1ccc(NC(=O)c2ccc(CN3CCN(C)CC3)c(C(F)(F)F)c2)cc1CNc1cnc2[nH]c(C(=O)O)cc2c1` [OR0623, 5-{2-Methyl-5-[4-(4-methyl-piperazin-1-ylmethyl)-3-trifluoromethyl-benzoylamino]-benzylamino}-1H-pyrrolo[2,3-b]pyridine-2-carboxylic acid], the inhibition at 0.1 µM is under 50% at BRAF; at least 50% at EGFR (ErbB1); at least 50% at EGFR (ErbB1) T790M L858R; at least 50% at FGFR2; at least 50% on KDR (VEGFR2); at least 50% on PDGFRA (PDGFR alpha). Further, the inhibition at 0.1 µM at SRC, on FGFR1, at VEGFR1 and on PDGFRB was at least 50% each time. Further, the inhibition at 10 µM on ABL and at ABL T315I was at least 50% in each case. Besides, the concentration giving a half-maximal response (EC50) in the test on A549 cell line, in the test with HepG2 cell line, in the test on HT29 cell line, in the test with BxPC-3 cell line, in the test on H1975 cell line and with HUVEC was at least 1000 nM each time.

These data come from patent US9403823B2, “Protein kinase inhibitors” (ORIBASE PHARMA, priority 2012, dated 2016).
